Reference: ChEMBL document CHEMBL1153103, “Bioisosterism of urea-based GCPII inhibitors: Synthesis and structure-activity relationship studies” (Bioorg Med Chem Lett, 2010)
pKi: −log10 of the molar value.

target: T1, Glutamate carboxypeptidase 2 (Homo sapiens, UniProt Q04609); test: Inhibition of human cloned glutamate carboxypeptidase 2
T1 sequence (Q04609 whole entry): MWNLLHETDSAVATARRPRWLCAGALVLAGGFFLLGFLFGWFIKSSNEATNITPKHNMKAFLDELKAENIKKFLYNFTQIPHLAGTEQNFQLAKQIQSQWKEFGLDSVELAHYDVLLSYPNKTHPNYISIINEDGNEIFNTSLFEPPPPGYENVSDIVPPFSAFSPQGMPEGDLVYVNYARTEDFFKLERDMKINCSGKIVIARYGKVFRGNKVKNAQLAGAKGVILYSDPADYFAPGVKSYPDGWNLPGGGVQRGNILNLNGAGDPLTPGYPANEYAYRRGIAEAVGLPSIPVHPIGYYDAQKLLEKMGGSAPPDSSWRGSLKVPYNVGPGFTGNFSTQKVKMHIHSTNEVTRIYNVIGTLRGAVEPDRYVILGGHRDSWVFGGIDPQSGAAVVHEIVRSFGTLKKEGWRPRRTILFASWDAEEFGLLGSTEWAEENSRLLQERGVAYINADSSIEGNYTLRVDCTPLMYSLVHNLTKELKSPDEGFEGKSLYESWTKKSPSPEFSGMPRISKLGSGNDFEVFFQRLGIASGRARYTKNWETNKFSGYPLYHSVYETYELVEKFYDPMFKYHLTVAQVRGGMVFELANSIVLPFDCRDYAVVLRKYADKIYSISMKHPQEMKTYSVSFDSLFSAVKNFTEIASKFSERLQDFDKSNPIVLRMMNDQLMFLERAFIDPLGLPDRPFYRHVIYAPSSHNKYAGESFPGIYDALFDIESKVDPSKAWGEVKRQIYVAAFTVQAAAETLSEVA

Point of comparison: `O=C(N[C@@H](CCCCNC(=O)c1ccc(I)cc1)C(=O)O)N[C@H](C(=O)O)c1ccc(O)cc1`, pKi 7.07. Against it:
- O=C(O)CCCNC(=O)N[C@@H](CCCCNC(=O)c1ccc(I)cc1)C(=O)O — 1.61 log units lower, 5.46
- O=C(N[C@@H](CCCCNC(=O)c1ccc(I)cc1)C(=O)O)N[C@H](Cc1cccs1)C(=O)O — 0.97 log units lower, 6.10
- O=C(O)CNC(=O)N[C@@H](CCCCNC(=O)c1ccc(I)cc1)C(=O)O — 1.19 log units lower, 5.88
- COc1cc(C(NC(=O)N[C@@H](CCCCNC(=O)c2ccc(I)cc2)C(=O)O)C(=O)O)ccc1O (some centres undefined) — 0.52 log units lower, 6.55
- N#CC[C@H](NC(=O)N[C@@H](CCCCNC(=O)c1ccc(I)cc1)C(=O)O)C(=O)O — within 0.2 log units, 6.88
- NC(=O)C[C@H](NC(=O)N[C@@H](CCCCNC(=O)c1ccc(I)cc1)C(=O)O)C(=O)O — 0.58 log units lower, 6.49
- O=C(N[C@@H](CCCCNC(=O)c1ccc(I)cc1)C(=O)O)N[C@@H](Cc1cccs1)C(=O)O — 0.72 log units higher, 7.79
- O=C(N[C@@H](CCCCNC(=O)c1ccc(I)cc1)C(=O)O)N[C@@H](Cc1ccco1)C(=O)O — 1.21 log units higher, 8.28
- C#CC[C@H](NC(=O)N[C@@H](CCCCNC(=O)c1ccc(I)cc1)C(=O)O)C(=O)O — 1.21 log units higher, 8.28
- O=C(N[C@@H](CCCCNC(=O)c1ccc(I)cc1)C(=O)O)N[C@@H](CC1CO1)C(=O)O (some centres undefined) — 0.47 log units lower, 6.60
- O=C(N[C@@H](CCCCNC(=O)c1ccc(I)cc1)C(=O)O)N[C@H](Cc1ccco1)C(=O)O — 0.97 log units lower, 6.10
- O=C(N[C@@H](CCCCNC(=O)c1ccc(I)cc1)C(=O)O)N[C@@H](Cc1cccnc1)C(=O)O — within 0.2 log units, 7.01
- CC(=O)SCCC[C@H](NC(=O)N[C@@H](CCCCNC(=O)c1ccc(I)cc1)C(=O)O)C(=O)O — 0.55 log units higher, 7.62
- O=C(N[C@@H](CCCCNC(=O)c1ccc(I)cc1)C(=O)O)NC1(C(=O)O)CC1 — 0.57 log units lower, 6.50
- CCC[C@H](NC(=O)N[C@@H](CCCCNC(=O)c1ccc(I)cc1)C(=O)O)C(=O)O — 0.21 log units higher, 7.28
- O=C(N[C@@H](CCCCNC(=O)c1ccc(I)cc1)C(=O)O)N[C@@H](Cc1ccncc1)C(=O)O — within 0.2 log units, 6.98
- O=C(N[C@@H](CCCCNC(=O)c1ccc(I)cc1)C(=O)O)N[C@@H](Cc1cscn1)C(=O)O — 0.72 log units higher, 7.79

target: T1, Glutamate carboxypeptidase 2; test: Inhibition of glutamate carboxypeptidase 2 in human LNCaP cells by fluorescence based NAALADase assay; type: cell-based

Point of comparison: `COc1cc(C(NC(=O)N[C@@H](CC(C)C)C(=O)OC(C)C)C(=O)O)ccc1O` (some centres undefined), pKi 7.09. Against it:
- CC(C)C[C@H](NC(=O)N[C@@H](Cc1cccc(C(=O)O)c1)C(=O)O)C(=O)O — 1.57 log units lower, 5.52
- CSCCC[C@H](NC(=O)N[C@@H](CC(C)C)C(=O)O)C(=O)O — 1.63 log units lower, 5.46
- COC(=O)[C@H](CC(C)C)NC(=O)NC(C(=O)O)c1ccc(O)c(F)c1 (some centres undefined) — 1.57 log units lower, 5.52
- CC(C)C[C@H](NC(=O)NC(C(=O)O)c1cccc(O)c1)C(=O)O (some centres undefined) — lower, < 3.00
- COC(=O)[C@H](CC(C)C)NC(=O)N[C@H](C(=O)O)c1cc(Br)c(O)c(Br)c1 — 0.85 log units lower, 6.24
- COC(=O)[C@H](CC(C)C)NC(=O)NC(C(=O)O)c1cccc(O)c1 (some centres undefined) — lower, < 3.00
- COC(=O)[C@H](CC(C)C)NC(=O)N[C@H](C(=O)O)c1ccc(O)c(I)c1 — 0.77 log units lower, 6.32
- CC(C)C[C@H](NC(=O)N[C@H](C(=O)O)c1ccc(O)cc1)C(=O)O — 0.98 log units lower, 6.11
- CC(C)C[C@H](NC(=O)NC(C(=O)O)c1cc(O)cc(O)c1)C(=O)O (some centres undefined) — 2.20 log units lower, 4.89
- COC(=O)[C@H](CC(C)C)NC(=O)N[C@@H](Cc1cccc(O)c1)C(=O)O — lower, < 3.00
- COC(=O)[C@H](CC(C)C)NC(=O)N[C@@H](CCC(N)=O)C(=O)O — 1.97 log units lower, 5.12
- COC(=O)[C@H](CC(C)C)NC(=O)NC(C(=O)O)c1ccc(F)c(OC)c1 (some centres undefined) — lower, < 3.00
- COC(=O)[C@H](CC(C)C)NC(=O)N[C@@H](CCCSC)C(=O)O — lower, < 3.00
- COC(=O)[C@H](CC(C)C)NC(=O)N[C@@H](Cc1cccc(C(=O)O)c1)C(=O)O — lower, < 3.00
- CC(C)C[C@H](NC(=O)NC(C(=O)O)c1ccc(O)c(I)c1)C(=O)OC(C)C (some centres undefined) — 0.53 log units lower, 6.56
- CC(C)C[C@H](NC(=O)N[C@@H](Cc1ccc(O)c(I)c1)C(=O)O)C(=O)O — 2.20 log units lower, 4.89
- COC(=O)[C@H](CC(C)C)NC(=O)NC(C(=O)O)c1ccc(O)c(OC)c1 (some centres undefined) — 0.27 log units lower, 6.82
- COC(=O)[C@H](CC(C)C)NC(=O)N[C@H](C(=O)O)c1ccc(O)c(Br)c1 — 0.69 log units lower, 6.40
- COc1cc(C(NC(=O)N[C@@H](CC(C)C)C(=O)O)C(=O)O)ccc1O (some centres undefined) — 0.49 log units lower, 6.60
- CC(C)C[C@H](NC(=O)N[C@@H](Cc1ccc(O)cc1)C(=O)O)C(=O)O — 0.94 log units lower, 6.15
